Test [1] has as its system Canis familiaris. Description: Concentration that causes a 20% increase in APD95 (action potential duration at 95% repolarization) from control value in anesthetized dogs. It is filed as functional, Canis lupus familiaris.
In test [2] the test system is Canis familiaris. The test can be described thus: Concentration at which maximum change in […] was observed from control value in anesthetized dogs; The maximum observed change APD95 from control value and concentration at 100 uM when this occurred. The class given is functional, Canis lupus familiaris.
Test [3] relates to Canis familiaris. Description: Concentration at which maximum change in […] was observed from control value in anesthetized dogs; The maximum observed change APD95 from control value and concentration at 30 uM when this occurred. It is filed as functional, Canis lupus familiaris.
In test [4] the target is Beta-1 adrenergic receptor (Canis familiaris).
Test [5] has as its system Canis familiaris. The test can be described thus: Maximum change in […] from control value in anesthetized dogs; 10 uM. The class given is functional, Canis lupus familiaris.
Test [6] is described as follows: Ratio of number of active animals to number of treated animals; No of animals tested=2. The class given is functional.
For test [7], the target named is Beta adrenergic receptor (Canis familiaris).
For test [8], the system named is Canis familiaris. Description: Percent change in FRP from control at active dose 30 mg/kg administered intraperitoneally in anesthetized dogs. The class given is functional, Canis lupus familiaris. To be noted: route intraperitoneal.
Test [9] deals with Canis familiaris. Description: Percent change in blood pressure (BP) from control at active dose 30 mg/kg administered intraperitoneally in anesthetized dogs. The class given is functional, Canis lupus familiaris. To be noted: route intraperitoneal.
The nature of test [10]: Ratio of number of active animals to number of treated at dose 30 mg/kg administered intraperitoneally in anesthetized dogs; No of animals tested=2. The class given is functional. To be noted: route intraperitoneal.
Test [11] deals with Canis familiaris. The test can be described thus: Percent change in heart rate (HR) from control at active dose 30 mg/kg administered intraduodenally. To be noted: route intraduodenal.
The target in test [12] is T1, Beta-2 adrenergic receptor (Canis lupus familiaris, UniProt P54833).
T1 sequence (P54833 whole entry): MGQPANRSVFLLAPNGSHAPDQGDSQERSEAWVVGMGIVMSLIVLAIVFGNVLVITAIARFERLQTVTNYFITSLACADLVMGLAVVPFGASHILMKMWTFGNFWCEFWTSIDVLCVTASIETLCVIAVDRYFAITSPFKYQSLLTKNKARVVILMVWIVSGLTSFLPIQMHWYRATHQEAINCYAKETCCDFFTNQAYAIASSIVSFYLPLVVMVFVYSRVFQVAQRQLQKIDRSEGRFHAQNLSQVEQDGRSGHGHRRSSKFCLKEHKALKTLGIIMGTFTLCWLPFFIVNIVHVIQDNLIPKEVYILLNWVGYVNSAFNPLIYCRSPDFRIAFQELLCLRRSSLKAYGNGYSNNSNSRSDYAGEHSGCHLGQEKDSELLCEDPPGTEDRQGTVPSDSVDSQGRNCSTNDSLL
Description: Tested for Beta-2 adrenergic receptor selectivity in canine lung tissue in anesthetized dogs
For test [13], the target named is T1, Beta-2 adrenergic receptor. The test can be described thus: Beta2-receptor selectivity in canine lung tissue in anesthetized dogs. It is filed as functional.

The source of these data is ChEMBL document CHEMBL1125127 (J Med Chem, 1990).

What is called IC50 is the concentration that inhibits the measured activity by half. A lower IC50 goes with greater potency in that assay.

Structures are written as SMILES.

For `CCN(CC)CCNC(=O)c1ccc(NS(C)(=O)=O)cc1` [SEMATILIDE], the C20 in the test on Canis familiaris [1] came out at 4.4 µM. The Max delta with Canis familiaris [2] is on record as 65%.
Turning to `CS(=O)(=O)Nc1ccc(OC[C@H](O)CNCCOc2ccc(-n3ccnc3)cc2)cc1`, in the test with Canis familiaris [3], the Max delta amounted to 73%.
Turning to `CS(=O)(=O)Nc1ccc(OCC(O)CNCc2ccc(-n3ccnc3)cc2)cc1` (stereo not given), in the test with Canis familiaris [1], the C20 was found to be 1.8 µM. The compound further gave a Max delta in the test with Canis familiaris [3] of 67%. The compound further returned an IC50 in [4] of 33.1 µM.
With `COc1ccc(OCC(O)CNCCNC(=O)c2ccc(NS(C)(=O)=O)cc2)cc1` (stereo not given), the C20 with Canis familiaris [1] stood at 0.6 µM. Further, in the test with Canis familiaris [5], the Max delta is 86%. Also, in [6], the Ratio is 0. The IC50 in test [7] was 43.8 µM.
For the compound `CS(=O)(=O)Nc1ccc(OCC(O)CNCCNC(=O)c2ccc(-n3ccnc3)cc2)cc1` (stereo not given), the C20 in the test on Canis familiaris [1] was 5.8 µM. The compound also came in with a Max delta with Canis familiaris [2] of 58%. In addition, the Change in the test on Canis familiaris [8] was 14%; with Canis familiaris [9] it was 30%; with Canis familiaris [11] it was -18%. Also, the Ratio in [10] worked out at 1. In test [7], the IC50 stood at 227 µM.
For `CS(=O)(=O)Nc1ccc(C(=O)N2CCN(CC(O)COc3ccccc3)CC2)cc1` (stereo not given), the C20 in the test with Canis familiaris [1] was below 1 µM. In the test on Canis familiaris [5], this compound displayed a Max delta of 88%. Further, the IC50 in test [7] was found to be 12.2 µM.
For the compound `CS(=O)(=O)Nc1ccc(C(=O)NCCNCC(O)COc2ccccc2)cc1` (stereo not given), the C20 with Canis familiaris [1] came out at 7.1 µM. For the same compound, in the test on Canis familiaris [3], the Max delta was 26%. Besides, the Ratio in [6] was 0. Moreover, in test [7], the IC50 worked out at 3.9 µM.
In the case of `CS(=O)(=O)Nc1ccc(C(=O)NCCNCC(O)COc2cccc3ccccc23)cc1` (stereo not given), in the test with Canis familiaris [1], the C20 was found to be 1.1 µM. This compound also returned a Max delta with Canis familiaris [5] of 48%. The Ratio in [6] is 0. This compound also showed an IC50 in test [7] of 0.15 µM.
`CS(=O)(=O)Nc1ccc(C(=O)NC2CCCCC2NCC(O)COc2ccccc2)cc1` (stereo not given) gave a C20 in the test on Canis familiaris [1] of 5.3 µM. Moreover, the Max delta in the test with Canis familiaris [5] stood at 45%. Further, the Change in the test on Canis familiaris [8] is given as 15%; in the test on Canis familiaris [9], 17%; in the test on Canis familiaris [11] it was -19%. Moreover, in [10], the Ratio came out at 2. The compound further came in with a concentration for half-maximal inhibition (IC50) in test [7] of 192 µM.
On to `CS(=O)(=O)Nc1ccc(C(=O)NCCNCC(O)COc2ccccc2C#N)cc1` (stereo not given), for which the C20 with Canis familiaris [1] is 23.7 µM. The compound further gave a Max delta with Canis familiaris [3] of 31%. Further, the IC50 in test [7] came to 2.9 µM.
Consider `Cc1ccccc1OCC(O)CNCc1ccc(-n2ccnc2)cc1` (stereo not given), for which the C20 with Canis familiaris [1] amounted to 0.3 µM. The Max delta in the test on Canis familiaris [5] is given as 65%. In addition, the IC50 in test [4] was determined as 0.8 µM; in [12], 1.2 µM; in test [7], 0.78 µM.
Turning to `CC(=O)Nc1ccc(OCC(O)CN2CCN(c3ccc(NS(C)(=O)=O)cc3)CC2)cc1` (stereo not given), the C20 in the test with Canis familiaris [1] stood at 42 µM. The Max delta in the test with Canis familiaris [2] was 39%. Further, in [7], the 50% inhibitory concentration (IC50) amounted to 293 µM.
`COCCc1ccc(OCC(O)CNCCOc2ccc(-n3ccnc3)cc2)cc1` (stereo not given) registered a concentration for half-maximal inhibition (IC50) in test [13] of 4.5 µM. The “C20 APD95” value in the test on Canis familiaris [1] is 14.8 µM. The Max delta in the test on Canis familiaris [2] stood at 89%.
The compound `COCCc1ccc(OCC(O)CNCCNC(=O)c2ccc(-n3ccnc3)cc2)cc1` (stereo not given) displayed a C20 in the test on Canis familiaris [1] below 1.4 µM. In addition, in the test on Canis familiaris [5], the Max delta was found to be 70%. The IC50 in test [7] worked out at 12.4 µM.
As for `Cc1cccc(OCC(O)CNCc2ccc(NS(C)(=O)=O)cc2)c1` (stereo not given), the C20 in the test with Canis familiaris [1] was below 1 µM. Besides, in the test with Canis familiaris [5], the Max delta amounted to 44%. Further, the values for the IC50 in test [4], in test [12] and in test [7] were 2.4 µM, 4.4 µM and 0.99 µM, respectively.
As to `COCCc1ccc(OCC(O)CN2CCN(C(=O)c3ccc(NS(C)(=O)=O)cc3)CC2)cc1` (stereo not given), in the test on Canis familiaris [1], the C20 amounted to 7.7 µM. In addition, the Max delta in the test on Canis familiaris [5] turned out to be 56%. In addition, in [7], the IC50 worked out at 360 µM.
`COCCc1ccc(OCC(O)CNCc2ccc(NS(C)(=O)=O)cc2)cc1` (stereo not given) showed a C20 with Canis familiaris [1] of 0.5 µM. In the test with Canis familiaris [5], the Max delta came out at 57%. The IC50 stood at 7.3 µM in [4], 46 µM in test [12] and 25.8 µM in [7].
